This assay has as its system HER2+ cell lines. Nature of the assay: In vitro cell growth assays: drug combination effects (CellTiter-Glo cell viability). Format: cell-based. How it is done:
Cells (BT474-M3, NCI-N87, NCI-N87-PIK3CA(wt), NCI-N87-PIK3CA(H1047R), NCI-N87-PIK3CA(E454K), COLO-678, KYSE-410, ZR75-1, MDA-MB-361 or MDA-MB-175-VII) are seeded at 700 cells per 384-well plate in 10% FBS cell growth medium and treated with the five drugs, separately or in combination, at […], with and without 5 nM HRG-β1 pre-stimulation (for four hours). Cell viability was determined 72 hours later with CellTiter-Glo® luminescent cell viability assay (Promega).
This panel included cells harboring PI3KCA-activating mutations (both natural and engineered), PTEN deletions, and KRAS-activating mutations, as well as PI3K and MAPK-wild type cells. To clarify and summarize the drug-response relationships, multivariate regression models were parameterized for each cell line, simulating % cell growth inhibition as linear combinations of the five input drug concentrations. Regression coefficients for each drug were grouped by mutational background and the presence or absence of heregulin stimulation, and average values computed (FIG. 4B).
For orientation: Cellular ATP, detected with luciferase, serves as a proxy for viable cell number.

On to `NC1(c2ccc(-c3nc4ccn5c(=O)[nH]nc5c4cc3-c3ccccc3)cc2)CCC1` [MK2206], for which, for the setting “PI3K-mutant cells (MDA-MB-361, ZR-75-1, and NCI-N87-PIK3CA)”, the “sensitivity of PI3K-mutant cells to drug-containing regimens” value was “most sensitive”.

Consider `CS(=O)(=O)CCNCc1ccc(-c2ccc3ncnc(Nc4ccc(OCc5cccc(F)c5)c(Cl)c4)c3c2)o1` [lapatinib], for which the “effect of HRG on sensitivity of cells to the drug (cell growth inhibition)” value (presence of 5 nM exogenous HRG, regardless of genetic background) was “desensitizes”. For the same compound, the “sensitivity of wild-type cells to drug-containing regimens” value (wild-type cells) is reported as “most sensitive”.

The values are drawn from US20150361503A1, “METHODS FOR SELECTING THERAPEUTICS FOR TREATMENT OF HER2+ CANCERS” (Merrimack Pharmaceuticals, Inc., priority 2014, published 2015).
